For test [1], the target named is T1, Histone deacetylase 1 (Homo sapiens, UniProt Q13547). Description: Inhibition of human recombinant HDAC1 pre-incubated for 30 mins before Ac-Leu- Gly-Lys(Ac)-AMC substrate addition and measured after 90 mins by fluorescence based assay.
For test [2], the target named is Histone deacetylase 2 (Homo sapiens, UniProt Q92769). Nature of the test: Inhibition of human recombinant HDAC2 pre-incubated for 30 mins before Ac-Leu- Gly-Lys(Ac)-AMC substrate addition and measured after 90 mins by fluorescence based assay.
Chain of Histone deacetylase 2 (Q92769 whole entry): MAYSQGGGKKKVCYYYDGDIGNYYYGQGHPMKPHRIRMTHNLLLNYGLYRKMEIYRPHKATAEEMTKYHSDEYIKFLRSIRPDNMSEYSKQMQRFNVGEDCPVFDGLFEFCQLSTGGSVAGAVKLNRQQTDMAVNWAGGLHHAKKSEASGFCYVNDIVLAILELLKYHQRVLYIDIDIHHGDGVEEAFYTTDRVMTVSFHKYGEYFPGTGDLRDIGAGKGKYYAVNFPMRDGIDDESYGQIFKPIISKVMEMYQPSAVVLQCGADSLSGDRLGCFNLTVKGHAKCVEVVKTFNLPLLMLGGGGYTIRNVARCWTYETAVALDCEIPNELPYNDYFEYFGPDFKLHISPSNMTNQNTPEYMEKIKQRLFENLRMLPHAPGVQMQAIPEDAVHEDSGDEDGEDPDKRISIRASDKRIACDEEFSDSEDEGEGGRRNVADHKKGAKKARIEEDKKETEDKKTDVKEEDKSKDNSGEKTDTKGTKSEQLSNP
In test [3] the target is Histone deacetylase 3 (Homo sapiens, UniProt O15379). Nature of the test: Inhibition of human recombinant HDAC3 pre-incubated for 30 mins before Ac-Leu- Gly-Lys(Ac)-AMC substrate addition and measured after 90 mins by fluorescence based assay.
Chain of Histone deacetylase 3 (O15379 whole entry): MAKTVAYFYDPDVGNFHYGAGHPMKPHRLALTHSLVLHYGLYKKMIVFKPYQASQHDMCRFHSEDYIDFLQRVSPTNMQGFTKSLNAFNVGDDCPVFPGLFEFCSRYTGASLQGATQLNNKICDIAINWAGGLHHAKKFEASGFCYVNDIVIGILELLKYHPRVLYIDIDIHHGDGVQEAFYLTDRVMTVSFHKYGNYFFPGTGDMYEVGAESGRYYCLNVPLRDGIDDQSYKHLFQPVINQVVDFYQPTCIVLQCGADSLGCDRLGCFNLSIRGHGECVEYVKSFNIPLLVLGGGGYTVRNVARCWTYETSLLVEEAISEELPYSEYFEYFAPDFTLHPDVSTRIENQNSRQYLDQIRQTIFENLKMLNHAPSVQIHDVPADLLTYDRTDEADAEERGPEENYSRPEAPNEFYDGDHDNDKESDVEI
In test [4] the target is T2, Histone deacetylase 8 (Homo sapiens, UniProt Q9BY41).
T2 sequence (Q9BY41 whole entry): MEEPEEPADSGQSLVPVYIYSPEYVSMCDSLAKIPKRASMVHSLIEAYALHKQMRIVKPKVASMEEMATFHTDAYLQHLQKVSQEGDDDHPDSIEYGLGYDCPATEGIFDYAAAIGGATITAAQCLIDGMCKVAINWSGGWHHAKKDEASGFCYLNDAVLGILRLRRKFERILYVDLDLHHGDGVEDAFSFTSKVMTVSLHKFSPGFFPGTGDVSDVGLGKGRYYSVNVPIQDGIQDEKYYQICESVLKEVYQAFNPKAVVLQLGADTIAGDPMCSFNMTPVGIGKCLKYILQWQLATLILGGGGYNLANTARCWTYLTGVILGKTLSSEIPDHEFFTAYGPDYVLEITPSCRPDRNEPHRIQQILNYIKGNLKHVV
Description: Inhibition of human recombinant HDAC8 pre-incubated for 30 mins before Ac-Leu- Gly-Lys(Ac)-AMC substrate addition and measured after 90 mins by fluorescence based assay.

Test [5] deals with HeLa. Nature of the test: Cytotoxicity against human HeLa cells assessed as increase in intracellular caspase 3/7 release incubated for 72 hrs by Caspase-Glo 3/7 assay.
Test [6] concerns HT-29. Nature of the test: Cytotoxicity against human HT-29 cells assessed as increase in intracellular caspase 3/7 release incubated for 72 hrs by Caspase-Glo 3/7 assay. The settings on record: HT-29, 72 h.
Test [7] relates to A549. Nature of the test: Cytotoxicity against human A549 cells assessed as increase in intracellular caspase 3/7 release incubated for 72 hrs by Caspase-Glo 3/7 assay. The settings on record: A549, 72 h.
Test [8] concerns MM96L. Nature of the test: Cytotoxicity against human MM96L cells assessed as reduction in cell viability incubated for 72 hrs by MTT assay.
Test [9] deals with HT-29. Nature of the test: Cytotoxicity against human HT-29 cells assessed as reduction in cell viability incubated for 72 hrs by MTT assay. The settings on record: HT-29, 72 h.
The subject of test [10] is MM96L. Description: Cytotoxicity against human MM96L cells assessed as increase in intracellular caspase 3/7 release incubated for 72 hrs by Caspase-Glo 3/7 assay.
Test [11] relates to MDA-MB-231. Nature of the test: Cytotoxicity against human MDA-MB-231 cells assessed as reduction in cell viability incubated for 72 hrs by MTT assay. The settings on record: MDA-MB-231, 72 h.
Test [12] concerns HeLa. Description: Cytotoxicity against human HeLa cells assessed as reduction in cell viability incubated for 72 hrs by MTT assay. (Formazan colour is commonly taken as a measure of viable cells.)
Test [13] concerns MDA-MB-231. Nature of the test: Cytotoxicity against human MDA-MB-231 cells assessed as increase in intracellular caspase 3/7 release incubated for 72 hrs by Caspase-Glo 3/7 assay. The settings on record: MDA-MB-231, 72 h.
The test system of test [14] is A549. Description: Cytotoxicity against human A549 cells assessed as reduction in cell viability incubated for 72 hrs by MTT assay. The settings on record: A549, 72 h.
Test [15] concerns the target T1, Histone deacetylase 1. Nature of the test: Inhibition of HDAC1 in human MM96L cells assessed as activation of histone H4 acetylation at Lys5, Lys8, Lys12 and Lys16 residues by Western blot analysis. Format: cell-based. On the technique in general: In western blotting, separated proteins are transferred to a membrane and probed.

This passage reports IC50, EC50 and inhibition results from ChEMBL document CHEMBL4602725 (J Med Chem, 2020).

T1 sequence (Q13547 whole entry): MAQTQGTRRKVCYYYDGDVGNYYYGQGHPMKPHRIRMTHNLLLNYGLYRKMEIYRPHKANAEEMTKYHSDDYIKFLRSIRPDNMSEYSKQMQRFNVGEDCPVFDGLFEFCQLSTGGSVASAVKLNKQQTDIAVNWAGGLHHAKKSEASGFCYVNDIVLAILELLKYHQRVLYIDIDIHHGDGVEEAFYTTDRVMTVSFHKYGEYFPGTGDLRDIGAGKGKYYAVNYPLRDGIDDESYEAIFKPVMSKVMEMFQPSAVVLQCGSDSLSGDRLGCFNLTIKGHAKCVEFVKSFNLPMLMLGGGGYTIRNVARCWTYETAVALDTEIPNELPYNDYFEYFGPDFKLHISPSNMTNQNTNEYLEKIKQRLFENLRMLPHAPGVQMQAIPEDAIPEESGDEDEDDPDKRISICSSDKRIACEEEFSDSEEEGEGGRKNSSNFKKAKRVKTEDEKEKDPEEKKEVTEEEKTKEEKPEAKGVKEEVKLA

As usually defined, the IC50 is the concentration that gives 50% inhibition. Take `O=C(NO)c1ccc(NC(=O)C2(c3c[nH]c(-c4ccccc4)n3)CCCC2)cc1`: the IC50 was determined as 3 nM in test [1], 21 nM in test [2], 10 nM in [3] and 41 nM in [4]. With `O=C(NO)c1ccc(NC(=O)C2(c3ccc([N+](=O)[O-])cc3)CCOCC2)cc1`, in [1], the IC50 stood at 9 nM. On the same count and under the same terms, to `O=C(NO)c1ccc(NC(=O)C2(c3csc(-c4ccccc4)n3)CCCC2)cc1` belongs 12 nM; to `O=C(NO)c1ccc(NC(=O)C2(c3ccc(-c4ccc5[nH]ccc5c4)cc3)CCCC2)cc1`, 8 nM; to `CC(C)C(C(=O)Nc1ccc(C(=O)NO)cn1)c1ccccc1` (stereo not drawn), 22 nM.

For `COc1cccc(-c2nc(C3(C(=O)Nc4ccc(C(=O)NO)cc4)CCCC3)cs2)c1`, the IC50 in test [1] came out at 15 nM.

As for `Nc1cccc(-c2ccc(C3(C(=O)Nc4ccc(C(=O)NO)cc4)CCCC3)cc2)c1`, the IC50 in test [1] came to 4 nM.

As to `COc1ccc(C2(C(=O)Nc3ccc(C(=O)NO)cc3)CCCCC2)cc1OC`, in test [1], the IC50 worked out at 29 nM. `O=C(NO)c1ccc(NC(=O)C2(c3ccc(Br)cc3)CCCCC2)cc1`: the IC50 in test [1] was found to be 63 nM. Consider `CC(C)C(C(=O)N(C)c1ccc(C(=O)NO)cc1)c1ccccc1` (racemic), for which the IC50 in [1] was 439 nM.

Regarding `O=C(NO)c1ccc(NC(=O)C2(c3ccc(Cl)c(Cl)c3)CCOCC2)cc1`, in test [1], the IC50 was determined as 6 nM. The same measure, in the same setting: as for `O=C(NO)c1ccc(NC(=O)C2(c3ccc4ccccc4c3)CCCC2)cc1`, the figure is 11 nM. Consider `O=C(NO)c1ccc(NC(=O)C2(c3c[nH]c4ccccc34)CCCC2)cc1`, for which, in test [1], the IC50 turned out to be 23 nM. `O=C(NO)c1ccc(NC(=O)C2(c3ccc(Cl)cc3)CCCC2)cc1`: the IC50 in test [1] came out at 12 nM. Same read-out and setting: to `CC(=O)Nc1ccc(N)cc1-c1ccc(C2(C(=O)Nc3ccc(C(=O)NO)cc3)CCCCC2)cc1` belongs 10 nM; to `O=C(NO)c1ccc(NC(=O)C2(c3ccc(F)cc3)CCCC2)cc1`, 41 nM; to `O=C(NO)c1ccc(NC(=O)C2(c3ccccc3)CC2)cc1`, 93 nM. For `O=C(NO)c1ccc(NC(=O)C2(c3ccc(-c4cn[nH]c4)cc3)CCCCC2)cc1`, the IC50 in [1] was determined as 2 nM; in test [2], 10 nM; in test [3], 2 nM; in test [4], 69 nM. For `C/C(=N\O)c1sccc1-c1ccc(C2(C(=O)Nc3ccc(C(=O)NO)cc3)CCCC2)cc1`, the IC50 in [1] amounted to 43 nM. Same read-out and setting: to `Nc1ccc(C2(C(=O)Nc3ccc(C(=O)NO)cc3)CCOCC2)cc1` belongs 22 nM. With `CC(C)(C(=O)Nc1ccc(C(=O)NO)cc1)c1ccccc1`, the IC50 in test [1] was 218 nM. Regarding `O=C(NO)c1ccc(NC(=O)C2(c3ccccc3)CCCC2)nc1`, the IC50 in [1] came to 132 nM. Same read-out and setting: as for `CC(C)C(C(=O)Nc1ccc(C(=O)Nc2ccccc2N)cc1)c1ccccc1` (racemic), the figure is 231 nM. As to `O=C(NO)c1ccc(NC(=O)C2(c3c[nH]c(-c4ccc([N+](=O)[O-])cc4)n3)CCCC2)cc1`, the IC50 in [1] was 6 nM. The same measure, in the same setting: to `O=C(NO)c1ccc(NC(=O)C2(c3ccc(-c4cn[nH]c4)cc3)CCOCC2)cc1` belongs 2 nM.

What is called EC50 is the concentration that produces a half-maximal response. Turning to `O=C(O)c1cccc(-c2ccc(C3(C(=O)Nc4ccc(C(=O)NO)cc4)CCCC3)cc2)c1`, the IC50 in test [1] is 2 nM; in test [2] it was 13 nM; in test [8], above 100000 nM; in test [9] it was above 100000 nM; in test [3], 7 nM; in [11], above 100000 nM. Moreover, the values for the IC50 in [4], in [12] and in [14] were 118 nM, above 100000 nM and above 100000 nM, respectively. The EC50 in test [5], in test [6], in test [7], in test [10] and in [13] was above 100000 nM in each case. With `Cc1[nH]ncc1-c1ccc(C2(C(=O)Nc3ccc(C(=O)NO)cc3)CCCC2)cc1`, the IC50 in test [1] was found to be 5 nM. Consider `O=C(NO)c1ccc(NC(=O)C2(c3ccc(Br)cc3)CCOCC2)cc1`, for which the IC50 in test [1] turned out to be 2 nM; in [2] it was 17 nM; in test [3], 4 nM; in test [4] it was 59 nM. Also, the EC50 in test [15] was found to be 600 nM. Besides, the inhibition entry in test [15] is “Dose-dependent effect”. Turning to `O=C(NO)c1ccc(NC(=O)C2(c3ccc(-c4ccc(OCc5ccccc5)nc4)cc3)CCCC2)cc1`, the IC50 in test [1] is 240 nM.

On to `COc1ccc(C2(C(=O)Nc3ccc(C(=O)NO)cc3)CCCCC2)cc1Br`, for which the IC50 in test [1] was found to be 31 nM. On the same count and under the same terms, to `O=C(NO)c1ccc(NC(=O)C2(c3ccc(-c4ccccc4)c(F)c3)CCCC2)cc1` belongs 42 nM; to `O=C(NO)c1ccc(NC(=O)C2(c3ccccc3)CCOCC2)cc1`, 28 nM; to `O=C(Cc1ccccc1)Nc1ccc(C(=O)NO)cc1`, 75 nM.

With `O=C(NO)c1ccc(NC(=O)C2(c3ccc(C(F)(F)F)c(F)c3)CCCC2)cc1`, the IC50 in test [1] stood at 227 nM.

As for `O=C(NO)c1ccc(NC(=O)C2(c3ccccc3)CCCC2)cc1`, the IC50 in test [1] was determined as 28 nM. As for `O=C(NO)c1ccc(NC(=O)C2(c3ccc4c(c3)OCO4)CCCCC2)cc1`, in [1], the IC50 worked out at 42 nM. For the compound `CCC(CC)(C(=O)Nc1ccc(C(=O)NO)cc1)c1ccccc1`, in test [1], the IC50 came to 430 nM. For `CC(C)C(C(=O)Nc1ccc(C(=O)NO)c(Cl)c1)c1ccccc1` (racemic), in test [1], the IC50 turned out to be 8680 nM. Still for that read-out and setting: as for `Cc1n[nH]c(C)c1-c1ccc(C2(C(=O)Nc3ccc(C(=O)NO)cc3)CCCC2)cc1`, the figure is 8 nM; as for `CCCC(CCC)C(=O)Nc1ccc(C(=O)NO)cc1`, 738 nM; as for `O=C(NO)c1ccc(NC(=O)C2(c3ccc(-c4cn[nH]c4)cc3)CCCC2)cc1`, 3 nM. For the compound `COc1ccc(C2(C(=O)Nc3ccc(C(=O)NO)cc3)CCCCC2)cc1-c1cn[nH]c1`, the IC50 in test [1] was found to be 3 nM. Same read-out and setting: as for `O=C(NO)c1ccc(NC(=O)C2(c3ccc(Br)cc3)CCCC2)cc1`, the figure is 7 nM. Same read-out and setting: to `O=C(NO)c1ccc(NC(=O)C2(c3ccc(-c4cccnc4)cc3)CCCC2)cc1` belongs 5 nM; to `CC(C)C(NC(=O)c1ccc(C(=O)NO)cc1)c1ccccc1` (racemic), 2120 nM. The same measure, in the same setting: as for `O=C(NO)c1ccc(NC(=O)C2(c3csc(-c4ccccc4Oc4ccccc4)n3)CCCC2)cc1`, the figure is 431 nM; as for `CC(=O)Nc1cccc(-c2ccc(C3(C(=O)Nc4ccc(C(=O)NO)cc4)CCCC3)cc2)c1`, 5 nM. For the compound `O=C(NO)c1ccc(NC(=O)C2(c3ccccc3)CCNCC2)cc1`, the IC50 in test [1] is 12 nM. Consider `COc1ccc(C2(C(=O)Nc3ccc(C(=O)NO)cc3)CCCCC2)cc1-c1cccc(N)c1`, for which, in test [1], the IC50 was determined as 10 nM.

Consider `O=C(NO)c1ccc(NC(=O)C2(c3ccc(-c4ccccc4)cc3)CCCC2)cc1`, for which, in test [1], the IC50 came out at 16 nM.

Turning to `COc1ccc(C2(C(=O)Nc3ccc(C(=O)NO)cc3)CCCCC2)cc1-c1ccccc1NC(C)=O`, the IC50 in test [1] turned out to be 9 nM. On to `CC(=O)Nc1ccccc1-c1ccc(C2(C(=O)Nc3ccc(C(=O)NO)cc3)CCCC2)cc1`, for which the IC50 in test [1] came to 0.94 nM. Turning to `CC(C)C(C(=O)Nc1ccc(C(=O)NO)cc1Cl)c1ccccc1` (racemic), the IC50 in [1] turned out to be 1060 nM.

In the case of `O=C(NO)c1ccc(NC(=O)C2(c3ccc4ccccc4c3)CCCCC2)cc1`, the IC50 in test [1] came out at 43 nM.

In the case of `O=C(NO)c1ccc(NC(=O)C2(c3ccc(-c4cc[nH]n4)cc3)CCCC2)cc1`, the IC50 in test [1] stood at 4 nM. As to `O=C(NO)c1ccc(NC(=O)C(c2ccccc2)c2ccccc2)cc1`, in test [1], the IC50 came to 250 nM. On to `O=C(NO)c1ccc(NC(=O)C2(c3ccccc3)CCCCC2)cc1`, for which the IC50 in test [1] came to 15 nM.

`O=C(NO)c1ccc(NC(=O)C2(c3csc(-c4cccc(Oc5ccccc5)c4)n3)CCCC2)cc1`: the IC50 in [1] was above 10000 nM. With `O=C(NO)c1ccc(NC(=O)C2(c3c[nH]c(-c4ccc(Br)cc4)n3)CCCC2)cc1`, the IC50 in [1] came to 10 nM.
